Data taken from patent US20220315567A1 (priority 2016, published 2022).
Read-outs that look alike come from different tables or passages of the source.

Columns and labels:
human OPRM1 (μ, MOR) [1] = target: T1, human OPRM1 (μ, MOR) (Homo sapiens, UniProt P35372); test: cell-based; conditions: for Emax: OPRM1, read-out: cAMP Emax; for EC50: PathHunter human OPRM1 Arrestin CHO-K1 cell line, read-out: cAMP EC50
T1 construct: host or cells: CHO-K1
Description: G-protein signaling was measured via second messenger cAMP modulation. Detection of cAMP modulation was accomplished in the PathHunter human OPRM1 (μ, MOR) Arrestin CHO-K1 cell line using the Dynamic2 cAMP Kit from Cisbio.

human OPRM1 (μ, MOR) [2] = target: T1, human OPRM1 (μ, MOR); test: cell-based; conditions: for Emax: OPRM1, read-out: β-Arrestin Emax; for EC50: PathHunter human OPRM1 Arrestin CHO-K1 cell line, read-out: β-Arrestin EC50
Outline: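 β-Arrestin-2 recruitment was measured in PathHunter CHO-K1 cells expressing ED-tagged human OPRM1 and EA-fused arrestin. Agonist-driven recruitment restores β-galactosidase activity by enzyme fragment complementation, read by chemiluminescence.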

human OPRM1 (μ, MOR) [3] = target: T1, human OPRM1 (μ, MOR); format: cell-based; conditions: for ΔRA of compound: relative activity from EC50 and Emax of β-arrestin vs cAMP, lower RA = more G-protein biased
Outline: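 Activity measured in cell assays for G-protein signaling and for β-arrestin recruitment. A relative activity (RA) value was derived by comparing the two readouts, taking both EC50 and Emax into account.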

T1 sequence (P35372 whole entry): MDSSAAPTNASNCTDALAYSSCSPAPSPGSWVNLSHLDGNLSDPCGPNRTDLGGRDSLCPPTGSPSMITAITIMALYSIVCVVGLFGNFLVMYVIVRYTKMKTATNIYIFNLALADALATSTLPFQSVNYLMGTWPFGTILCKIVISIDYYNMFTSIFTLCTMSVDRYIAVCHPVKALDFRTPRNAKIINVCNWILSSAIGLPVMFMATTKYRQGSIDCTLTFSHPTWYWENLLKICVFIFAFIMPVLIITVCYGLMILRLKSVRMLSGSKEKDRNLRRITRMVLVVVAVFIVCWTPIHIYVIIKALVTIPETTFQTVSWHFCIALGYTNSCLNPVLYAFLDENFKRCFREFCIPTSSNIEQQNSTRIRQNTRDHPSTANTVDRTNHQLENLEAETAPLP

SMILES | Emax (human OPRM1 (μ, MOR) [1]) | EC50 (human OPRM1 (μ, MOR) [1]) | melting point | Emax (human OPRM1 (μ, MOR) [2]) | EC50 (human OPRM1 (μ, MOR) [2]) | Bias Factor (ΔRA of compound relative to ΔRA of DAMGO) × 10 (human OPRM1 (μ, MOR) [3]) | ΔRA of compound (human OPRM1 (μ, MOR) [3])
CN(C(=O)OC(C)(C)C)C(CNC(=O)N1Cc2ccc(F)cc2C1)c1ccsc1 (stereo not drawn) [Compound 34, tert-Butyl (2-(5-fluoroisoindoline-2-carboxamido)-1-(thiophen-3-yl)ethyl)(methyl)carbamate] | 2.6% | > 100 µM | 182 to 184 °C | < 1% | > 100 µM |  | 
CN(C)C(CNC(=O)N1Cc2cccc(C#N)c2C1)c1ccsc1 (stereo not drawn) [Compound 44] | 51.4% | 0.162 µM | 159 to 161 °C | 5.3% | > 100 µM | <−14.83 | <−2.96
CN(C)C(CNC(=O)N1CCCc2cc(O)ccc21)c1ccsc1 (stereo not drawn) [Compound 53] | 120% | 0.267 µM | 163 °C (dec.) | 20.1% | 3.79 µM | −4.47 | −1.93
CN(C)C1(CNC(=O)N2Cc3ccccc3C2)CCCCC1 [Compound 54] | 113% | 0.396 µM | 225 to 227 °C | 20.8% | 4.42 µM | −3.04 | −1.78
CN(C)C1(CNC(=O)N[C@@H]2CCc3ccccc3C2)CCCCC1 [Compound 55] | 36.6% | 2.85 µM | 192 to 194 °C | < 1% | > 100 µM | <−14.83 | <−2.96
CN(C)C1(CNC(=O)N[C@H]2CCc3ccccc3C2)CCCCC1 [Compound 56] | 43.3% | 7.74 µM | 191 to 193 °C | < 1% | > 100 µM | <−14.83 | <−2.96
CN(C)C1(CNC(=O)N2Cc3ccc(F)cc3C2)CCOCC1 [Compound 61] | 104% | 1.17 µM | 241 to 243 °C | 14.5% | > 100 µM | <−14.83 | <−2.96
CN(C)C(C)(C)CNC(=O)N1Cc2ccc(F)cc2C1 [Compound 62] | 81.8% | 21 µM | 200 to 202 °C | < 1% | > 100 µM | <−14.83 | <−2.96
